{"source": "patent US20160058754A1", "about": "“Nalmefene for Treatment of Patients with Anxiety Disorder” (H. LUNDBECK A/S, priority 2013, published 2016)", "key": {"[1]": {"system": "patients with alcohol dependence", "experiment": "Clinical efficacy on the reduction of alcohol consumption (Studies 12014A, 12023A, 12013A)", "assay_type": "in vivo, human", "procedure": "The efficacy of nalmefene in the reduction of alcohol consumption in patients with alcohol dependence (DSM-IV) has been evaluated in studies 12014A, 12023A and 12013A. The efficacy of nalmefene was measured using two co-primary endpoints: the change from baseline in the monthly number of heavy drinking days (HDDs) and the change from baseline in the average daily total alcohol consumption (TAC).\n(§1) Another approach to identify patients with an anxiety disorder is by defining Anxiety Disorder at baseline as any ongoing medical history coded by the Medical Dictionary for Regulatory Activities (MedDRA) Preferred Term as ‘Acute Stress Disorder’, ‘Agoraphobia’, ‘Anxiety’, ‘Anxiety Disorder’, ‘Emotional Distress’, ‘Generalised Anxiety Disorder’, ‘Nervousness’, ‘Nosophobia’, ‘Obsessive-Compulsive Disorder’, ‘Panic Attack’, ‘Panic Disorder’, ‘Panic Disorder With Agoraphobia’, ‘Post-Traumatic Stress Disorder’, ‘Social Phobia’ and/or ‘Stress and Tension’. In examples 1 and 2 below patients classified with an anxiety disorder at baseline were selected based on said MedDRA terms.\nThe efficacy of nalmefene on the reduction of alcohol consumption in patients with alcohol dependence (DSM-IV) was evaluated in two efficacy studies (Study 12014A and Study 12023A) and a safety study (Study 12013A). All studies were multi-national, multi-site, randomised, double blind, two parallel group, placebo controlled studies. The efficacy was evaluated over 24 weeks of treatment. The studies included outpatients, aged ≧18 years, with a primary diagnosis of alcohol dependence. […] Patients with psychiatric co-morbidity (that is, patients who used stable doses of antipsychotics and/or certain antidepressants) were also included unless the treatment of the psychiatric comorbidity had to take priority over treatment of the drinking problem, or was likely to interfere with study treatment or impairs treatment compliance.\nThe studies included in total 1997 patients, 1173 of whom were treated with nalmefene 18 mg in an as-needed dosing regimen. A motivational and adherence enhancing intervention was administered to all the patients to support the patients in changing their behavior and to enhance adherence to treatment.\nThe efficacy of nalmefene on the reduction of alcohol consumption was measured using two co-primary endpoints: the change in the monthly number of heavy drinking days (HDDs) and the change in the average daily total alcohol consumption (TAC). A HDD was defined as a day with a consumption ≧60 g alcohol for men and ≧40 g for women."}, "[2]": {"system": "patients with alcohol dependence", "experiment": "Clinical efficacy measured by POMS score (Studies 12014A, 12023A, 12013A)", "assay_type": "in vivo, human", "text": "The term “POMS” is an abbreviation of “profile of mood states” and refers to a self-report inventory scale developed to assess the effect of e.g. new medication on mood states and mood changes. The scale measures six domains: Tension-Anxiety, Depression-Rejection, Anger-Hostility, Vigour-Activity, Fatigue-Inertia, and Confusion-Bewilderment. A total mood disturbance (TMD) score can be calculated. In general, a lower POMS score indicates a better mood state than a higher score except for vigour-activity, for which a higher POMS score indicates a better mood state. The scale has been described e.g. by McNair et al., Profile of mood states. San Diego, Calif.: Educational and Industrial Testing Service and by Nyenhios and Yamamoto, J. Clin. Psychology, (1999), Vol. 55(1): 79-86.\nAssessment of POMs scores in Studies 12014A, 12023A and 12013A was used to evaluate the effect of nalmefene on mood states and mood changes throughout the study. […] Tables 5 and 7 indicate that patients with an anxiety disorder at baseline had higher POMS scores at baseline when compared to those patients without anxiety disorders. The change in POMS scores from baseline are illustrated in FIGS. 3-9. […] A remarkable improvement is seen over the weeks 8-20.\nas §1\nAssessment of POMs scores in Studies 12014A, 12023A and 12013A was used to evaluate the effect of nalmefene on mood states and mood changes throughout the study. […]"}, "[3]": {"system": "patients with alcohol dependence", "experiment": "Clinical efficacy measured by SF-36 Mental Component Summary (FAS, OC)", "assay_type": "in vivo, human", "conditions": "for SF-36 Mental Component Summary, Change to Week 12, Mean ± SE / SF-36 Mental Component Summary, Change to Week 24, Mean ± SE: pooled studies, FAS, OC", "text": "Another method for measuring a patient's health status is by the SF-36 which is a patient-reported outcome developed as a general measure of perceived health status. The mental component summary score focuses on mental aspects of health related quality of life. Higher scores correspond to better health status or well-being."}, "[4]": {"system": "rats", "experiment": "Vogel test in rats", "assay_type": "in vivo, rat", "conditions": "0.01, 0.1 and 1 mg/kg s.c. 30 minutes before the test; 3-minute test; vs vehicle", "text": "Pairing of water drinking with […] shock punishment will induce a conflict in water deprived rats and lead to less frequent water seeking behaviour. Pretreatment of rats with an anxiolytic will counteract the conflict and increase the frequency of water seeking. The test can be conducted as described in detail by Vogel et al., Psychopharmacology, (1971), 21: pp. 1-7. In brief, rats are adapted to the test chambers, a Plexiglas box, equipped with a grid floor made of stainless steel bars and a drinking bottle with tap water. After the adaptation period, the animals are deprived of water and then placed in the test chamber for free access to the drinking bottle for a short period. Afterwards, they are allowed a short free-drinking session in their home cage. After another water deprivation period, the rats are placed again in the test chamber and allowed to drink for a very short time (30 s); immediately afterwards, their drinking attempts are punished with an electric shock. […] The number of shocks accepted throughout a 5-min experimental session was recorded.\nNalmefene was tested as the sole active compound in the Vogel model in rats. […] The number of punished drinks was counted during a 3-minute test. Nalmefene was evaluated at 3 doses (0.01, 0.1 and 1 mg/kg), administered s.c. 30 minutes before the test, and compared with a vehicle control group."}, "[5]": {"system": "rats", "experiment": "Elevated plus maze test in rats", "assay_type": "in vivo, rat", "conditions": "0.01, 0.1 and 1 mg/kg s.c. 30 minutes before the test; 5 minutes; vs vehicle", "text": "Rats have an aversion of open spaces and avoid them by confining movements to enclosed spaces or to the edges of a bounded space. Anxiolytic activity can be tested in a test setting consists of a plus-shaped apparatus with two open and two enclosed arms, each with an open roof, elevated 40-70 cm from the floor according to Pellow et al., J. Neurosci. Methods. (1985) August; 14(3):149-67. Pretreatment of rats with anxiolytic active compounds will increase in the proportion of time spent in the open arms (time in open arms/total time in open or closed arms), and an increase in the proportion of entries into the open arms (entries into open arms/total entries into open or closed arms). Total number of arm entries and number of closed-arm entries can be employed as measures of general activity.\nNalmefene was tested as the sole active compound in the elevated plus maze test in rats. A rat was placed in the centre of the plus-maze and left to explore for 5 minutes. The number of entries into the open and closed arms and the time spent on the open arms were recorded. The % of open arm entries (open arm entries/total arm entries×100) was calculated. Nalmefene was evaluated at 3 doses (0.01, 0.1 and 1 mg/kg), administered s.c. 30 minutes before the test, and compared with a vehicle control group."}, "[6]": {"system": "Mice (NMRI)", "experiment": "Marble burying test in mouse", "assay_type": "in vivo", "conditions": "0.01 or 1 mg/kg s.c.", "procedure": "The method, which detects anxiolytic/tranquillizing activity, follows that described by Broekkamp et al (Eur. J. Pharmacol., 126, 223-229, 1986). Mice exposed to novel objects (marbles) will bury them in the sawdust floor covering. Anxiolytics decrease the number of marbles buried at non-sedative doses.\nNalmefene was tested in the marble burying model as the sole active compound. Mice (NMRI) were individually placed in transparent plastic cages (33×21×18 cm) with 5 cm of sawdust on the floor and 25 marbles grouped in the centre of the cage. The cage was covered with an inverted plastic cage. Each test cage, together with the marbles, was impregnated with mouse odor before-hand by leaving 10 mice in the cage for 15 minutes. These mice then played no further role in the experiment.\nThe number of marbles covered by sawdust (⅔ or more) was counted at the end of a 30 minute test. 12 mice were studied per group. The test was performed blind. Nalmefene was evaluated at 3 doses (0.01, 0.1 and 1 mg/kg), administered s.c. 30 minutes before the test, and compared with a vehicle control group. […]\nData with the test substance were analysed by comparing treated groups with vehicle control using Kruskall-Wallis test followed by Mann-Whitney U tests. Data with the reference substance were analysed using Mann-Whitney U tests. […]"}, "[7]": {"target": "μ receptor (Homo sapiens, UniProt P35372)", "sequence (P35372 whole entry)": "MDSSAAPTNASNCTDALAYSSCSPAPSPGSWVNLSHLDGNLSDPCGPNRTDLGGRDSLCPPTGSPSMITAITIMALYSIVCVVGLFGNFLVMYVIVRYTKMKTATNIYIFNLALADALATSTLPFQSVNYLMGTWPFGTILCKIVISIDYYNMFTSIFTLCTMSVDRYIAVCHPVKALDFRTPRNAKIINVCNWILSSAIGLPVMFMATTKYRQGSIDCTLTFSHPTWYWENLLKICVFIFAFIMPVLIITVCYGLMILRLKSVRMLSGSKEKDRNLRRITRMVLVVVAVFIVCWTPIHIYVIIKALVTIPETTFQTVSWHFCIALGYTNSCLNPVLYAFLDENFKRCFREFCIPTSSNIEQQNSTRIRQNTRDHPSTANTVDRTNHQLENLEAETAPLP", "conditions": "in vitro studies; cited from earlier work"}, "[8]": {"target": "δ receptor (Homo sapiens, UniProt P41143)", "sequence (P41143 whole entry)": "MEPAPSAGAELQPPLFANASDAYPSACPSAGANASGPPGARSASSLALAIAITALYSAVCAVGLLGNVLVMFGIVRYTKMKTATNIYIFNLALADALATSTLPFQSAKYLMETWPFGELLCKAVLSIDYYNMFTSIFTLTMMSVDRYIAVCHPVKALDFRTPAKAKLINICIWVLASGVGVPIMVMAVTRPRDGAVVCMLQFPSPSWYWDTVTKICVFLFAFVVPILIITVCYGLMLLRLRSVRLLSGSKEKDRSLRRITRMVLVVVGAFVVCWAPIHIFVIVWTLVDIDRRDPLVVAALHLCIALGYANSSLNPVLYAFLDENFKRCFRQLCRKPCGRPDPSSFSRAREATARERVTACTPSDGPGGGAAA", "conditions": "in vitro studies; cited from earlier work"}, "[9]": {"target": "κ receptor (Homo sapiens, UniProt P41145)", "sequence (P41145 whole entry)": "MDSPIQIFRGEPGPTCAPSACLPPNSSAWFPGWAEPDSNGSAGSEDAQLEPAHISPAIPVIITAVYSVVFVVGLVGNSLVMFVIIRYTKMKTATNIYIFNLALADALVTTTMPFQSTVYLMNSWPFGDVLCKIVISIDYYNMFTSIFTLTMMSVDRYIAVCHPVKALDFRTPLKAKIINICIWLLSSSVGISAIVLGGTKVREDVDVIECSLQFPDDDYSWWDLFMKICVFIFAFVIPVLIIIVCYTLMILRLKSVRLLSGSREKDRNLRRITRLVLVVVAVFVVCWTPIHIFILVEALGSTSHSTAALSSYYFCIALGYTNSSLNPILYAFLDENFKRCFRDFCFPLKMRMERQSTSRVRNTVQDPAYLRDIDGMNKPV", "conditions": "in vitro studies; cited from earlier work"}, "[10]": {"conditions": "total patient group, nalmefene 18 mg as-needed vs placebo"}, "[11]": {"conditions": "no anxiety disorder at baseline"}}}
{"smiles": "C=C1CC[C@@]2(O)[C@H]3Cc4ccc(O)c5c4[C@@]2(CCN3CC2CC2)[C@H]1O5", "note": "[Nalmefene, 17-(cyclopropylmethyl)-4,5-alpha-epoxy-6-methylenemorphinan-3,14-diol]", "values": [{"measurement": "alcohol consumption", "setting": "[1]; patients with an anxiety disorder at baseline", "value": "significally reduced"}, {"measurement": "reducing TAC (change from baseline in average daily total alcohol consumption)", "setting": "[1]; [10]", "value": "superior to placebo"}, {"measurement": "reducing the number of HDDs (change from baseline in monthly number of heavy drinking days)", "setting": "[1]; [10]", "value": "superior to placebo"}, {"measurement": "difference between nalmefene and placebo measured in HDDs and TAC", "setting": "[1]; week 24, patients with an anxiety disorder at baseline compared with patients without", "value": "merely at the same level"}, {"measurement": "POMS score, nalmefene vs placebo", "setting": "[2]; patients with an anxiety disorder at baseline, end of the study", "value": "better POMS score"}, {"measurement": "POMS total mood disturbance, tension-anxiety, depression-rejection, anger-hostility and confusion, nalmefene vs placebo", "setting": "[2]; patients with an anxiety disorder at baseline, weeks 4-24", "value": "better POMS scores"}, {"measurement": "POMS score, nalmefene vs placebo", "setting": "[2]; patients without an anxiety disorder at baseline, throughout the study", "value": "no pronounced difference between nalmefene and placebo"}, {"measurement": "difference between nalmefene and placebo in the change from baseline in SF-36 mental component summary score", "setting": "[3]; Week 12 and Week 24, patients with an anxiety disorder at baseline compared with patients without", "value": "more pronounced"}, {"measurement": "SF-36 Mental Component Summary, Change to Week 12, Mean ± SE", "setting": "[3]; anxiety disorder at baseline", "value": "6.23 ± 1.47"}, {"measurement": "SF-36 Mental Component Summary, Change to Week 24, Mean ± SE", "setting": "[3]; anxiety disorder at baseline", "value": "7.56 ± 2.24"}, {"measurement": "SF-36 Mental Component Summary, Change to Week 12, Mean ± SE", "setting": "[3]; [11]", "value": "4.77 ± 0.37"}, {"measurement": "SF-36 Mental Component Summary, Change to Week 24, Mean ± SE", "setting": "[3]; [11]", "value": "5.65 ± 0.43"}, {"measurement": "number of punished drinks", "setting": "[4]", "value": "No significant effect"}, {"measurement": "open and closed arm entries, time spent on the open arms, % of open arm entries", "setting": "[5]", "value": "No significant effect"}, {"measurement": "effect on number of marbles covered by sawdust compared with vehicle controls", "setting": "[6]", "value": "no significant effects"}, {"measurement": "activity at the μ receptor", "setting": "[7]", "value": "antagonist activity"}, {"measurement": "activity at the δ receptor", "setting": "[8]", "value": "antagonist activity"}, {"measurement": "activity at the κ receptor", "setting": "[9]", "value": "partial agonist activity"}]}
